Measured values taken from the NIST ThermoML archive (doi:10.1016/j.jct.2019.03.014).
± gives the expanded uncertainty stated by the source.

Legend:
[1] = xn = mol fraction of the nth substance listed; conditions: Ring tensiometer
[2] = Ring tensiometer

OCC(O)CO [glycerol] + CCCO
surface tension liquid-gas [mN/m], [1]
Conditions	x2 = 0	x2 = 0.1	x2 = 0.2	x2 = 0.3	x2 = 0.4	x2 = 0.5	x2 = 0.6	x2 = 0.7	x2 = 0.8	x2 = 0.9
293.2 K	63.1 ± 1	41.8 ± 0.9	33.4 ± 0.8	30.1 ± 0.7	28.3 ± 0.7	27.3 ± 0.7	26.5 ± 0.7	26 ± 0.7	25.3 ± 0.7	24.7 ± 0.7
303.2 K	62.4 ± 1	41.5 ± 0.8	33.1 ± 0.7	29.7 ± 0.7	27.9 ± 0.7	26.9 ± 0.7	26.1 ± 0.7	25.5 ± 0.7	24.8 ± 0.7	24.1 ± 0.7
313.2 K	62 ± 1	41.2 ± 0.8	32.8 ± 0.7	29.3 ± 0.7	27.7 ± 0.7	26.4 ± 0.7	25.7 ± 0.7	25 ± 0.7	24.2 ± 0.7	23.3 ± 0.7
323.2 K	61.1 ± 1	40.9 ± 0.8	32.5 ± 0.7	28.9 ± 0.7	27.2 ± 0.7	26 ± 0.7	25.3 ± 0.7	24.5 ± 0.7	23.6 ± 0.7	22.5 ± 0.7
333.2 K	60.5 ± 0.9	40.5 ± 0.8	32.2 ± 0.7	28.5 ± 0.7	26.6 ± 0.7	25.6 ± 0.7	25 ± 0.7	24 ± 0.7	23 ± 0.7	21.6 ± 0.7

OCC(O)CO [glycerol] + CCO
surface tension liquid-gas [mN/m], [1]
Conditions	x2 = 0	x2 = 0.1	x2 = 0.2	x2 = 0.3	x2 = 0.4	x2 = 0.5	x2 = 0.6	x2 = 0.7	x2 = 0.8	x2 = 0.9
293.2 K	63.1 ± 1	52.9 ± 0.9	41.7 ± 0.8	36.1 ± 0.8	31.9 ± 0.7	29 ± 0.7	27.5 ± 0.7	26.2 ± 0.7	24.9 ± 0.7	23.7 ± 0.7
303.2 K	62.4 ± 1	52.4 ± 0.9	41.4 ± 0.8	35.9 ± 0.8	31.6 ± 0.7	28.5 ± 0.7	27.1 ± 0.7	25.4 ± 0.7	24.2 ± 0.7	23.2 ± 0.7
313.2 K	62 ± 1	52 ± 0.9	41.1 ± 0.8	35.7 ± 0.8	31.2 ± 0.7	27.9 ± 0.7	26.7 ± 0.7	24.5 ± 0.7	23.5 ± 0.7	22.6 ± 0.7
323.2 K	61.1 ± 1	51.5 ± 0.9	40.7 ± 0.8	35.4 ± 0.8	30.9 ± 0.7	27.7 ± 0.7	26.3 ± 0.7	23.6 ± 0.7	22.8 ± 0.7	22 ± 0.7
333.2 K	60.5 ± 0.9	51.1 ± 0.9	40.5 ± 0.8	35 ± 0.8	30.6 ± 0.7	27.2 ± 0.7	25.9 ± 0.7	22.7 ± 0.7	22.1 ± 0.7	21.2 ± 0.7

CCCO [propan-1-ol]
[2]
Conditions	surface tension liquid-gas [mN/m]
293.2 K	23.7 ± 0.7
303.2 K	22.9 ± 0.7
313.2 K	22.1 ± 0.7
323.2 K	21.3 ± 0.7
333.2 K	20.6 ± 0.7

CCCO [propan-1-ol] + OCC(O)CO
[1], x1 = 1
Conditions	surface tension liquid-gas [mN/m]
293.2 K	23.7 ± 0.7
303.2 K	22.9 ± 0.7
313.2 K	22.1 ± 0.7
323.2 K	21.3 ± 0.7
333.2 K	20.6 ± 0.7

CC(C)O [propan-2-ol]
[2]
Conditions	surface tension liquid-gas [mN/m]
293.2 K	21.4 ± 0.7
303.2 K	20.7 ± 0.7
313.2 K	19.7 ± 0.7
323.2 K	18.7 ± 0.7
333.2 K	17.6 ± 0.7

CC(C)O [propan-2-ol] + OCC(O)CO
[1], x1 = 1
Conditions	surface tension liquid-gas [mN/m]
293.2 K	21.4 ± 0.7
303.2 K	20.7 ± 0.7
313.2 K	19.7 ± 0.7
323.2 K	18.7 ± 0.7
333.2 K	17.6 ± 0.7
